From the NIST ThermoML archive (doi:10.1016/j.jct.2017.08.029)

Experiment: wn = mass fraction of the nth substance listed
Conditions: 100 kPa, Liquid, Direct current cell with electrodes

C=CC[P+](c1ccccc1)(c1ccccc1)c1ccccc1.[Br-] [allyltriphenylphosphonium bromide] + OCCOCCO
electrical conductivity [S/m]
Conditions	293.15 K	303.15 K	313.15 K	323.15 K	333.15 K	343.15 K
w1 = 0.1842	0.0997	0.115	0.14	0.175	0.224	0.279
w1 = 0.2653	0.118	0.129	0.159	0.198	0.253	0.315
w1 = 0.4745	0.137	0.148	0.177	0.222	0.274	0.339

C=CC[P+](c1ccccc1)(c1ccccc1)c1ccccc1.[Br-] [allyltriphenylphosphonium bromide] + OCCOCCOCCO
electrical conductivity [S/m]
Conditions	293.15 K	303.15 K	313.15 K	323.15 K	333.15 K	343.15 K
w1 = 0.1375	0.037	0.0441	0.0643	0.0881	0.116	0.149
w1 = 0.2033	0.0477	0.0632	0.0905	0.118	0.155	0.208
w1 = 0.3895	0.067	0.0805	0.112	0.147	0.193	0.244
